Measurements: PMC8422652, “Neuromedin U induces an invasive phenotype in CRC cells expressing the NMUR2 receptor” (Journal of Experimental & Clinical Cancer Research : CR, 2021)

How the values were obtained:
Caco-2 NMU1 clone = experiment: Cell migration assay (Transwell); assay type: cell-based, human; settings: 8 μm Transwell, 3 h, n = 4
Procedure: Migration and invasion assays were performed using an 8 μm pore size Transwell system (Thermo Fischer Scientific). First, 2 × 10^5 cells, were incubated with CellTracker™ Green CMFDA Dye (Invitrogen) for 30 min at 37 °C with following washing step with PBS. Cells resuspended in 200 ul of growth medium without FBS were added inside the insert fixed in the well with 600 ul medium with 10 % FBS. For invasion assays, the chamber was pre-coated with 1 mg/ml Matrigel (Corning). Cells were incubated for 3 h (migration) or 6 h (invasion) at 37 °C. Cells on the apical side of the chamber were gently scraped off using cotton swabs, filters were washed in PBS and pictures were taken under the microscope Nikon Eclipse TE 2000-U. Pictures analysis was done with the use of FIJI image processing package.

[1] = tested on: ERK1/2 in Caco-2 NMU clones; experiment: ERK1/2 kinase activation in Caco-2 NMU clones with inhibitor; assay type: cell-based, human; settings: preincubated 1 h with 20 µM inhibitor, immunoblot, n ≥ 4
Procedure: CRC cells were lysed with RIPA buffer (100 mM TRIS-HCl, pH 7.5, 300 mM NaCl, 0.2 % SDS with 1 % IGEPAL CA-630 and the Halt™ Protease Inhibitor Cocktail (Thermo Fisher Scientific)) with subsequent centrifugation (18,000 x g, 4 °C, 20 min). Total protein concentration in lysate was quantified by BCA method (Pierce BCA Protein Assay; Thermo Fisher Scientific). Samples were loaded and separated by SDS-PAGE (Mini-PROTEAN TGX Stain-Free Gels; Bio-Rad Laboratories, CA, USA) and transferred onto nitrocellulose membranes (Bio-Rad Laboratories). NMU protein was detected with rabbit anti-NMU antibody (Genetex, CA, USA), for ERK1/2 kinases analysis mouse anti-ERK1/2 (Santa Cruz Biotechnology, USA) and rabbit anti-pERK1/2 antibodies (Invitrogen) were used. In EVs (extracellular vesicles) purity analysis we used rabbit antibodies anti-GM130, anti-annexin V and anti-flotilin-1 (Cell Signaling Technologies, Danvers, MA, USA). Proteins used as loading controls were detected by mouse anti-β-actin, mouse anti-α-tubulin or rabbit anti-GAPDH antibody (Abcam, Cambridge, GB). We used secondary HRP-conjugated goat anti-mouse (Santa Cruz Biotechnology) or anti-rabbit antibodies (Invitrogen). The signal was detected by chemiluminescence (Thermo Fisher Scientific) with Kodak BioMax Light Film from Eastman Kodak (NY, USA). […]

Activity of the ERK1/2 signalling pathway in the presence of inhibitor [1]: sensitive
SMILES: COc1cccc(-c2cc(=O)c3ccccc3o2)c1N [PD98059]
Cell migration in the presence of inhibitor (Caco-2 NMU1 clone): inhibited
